According to patent US12304905B2, “Pharmaceutical salts of benzothiazol compounds, polymorphs and methods for preparation thereof” (priority 2019, dated 2025):

Key:
Type in all cases: physicochemical
[1] = Solubility tests of mono- and di-hydrochloride in bio-relevant media by HPLC; settings: for solubility at 17 h: 37 °C, thermodynamic from solid; for pH: after shaking 17 hrs at 37° C.
Method: Solubilities of mono-hydrochloride and di-hydrochloride salt forms in biorelevant media were tested at 37° C. Details of procedures were listed as below: About 15 mg obtained salts were weighed in 2 mL vials, respectively. Then 1.0 mL bio-relevant media (SGF, FaSSIF and FeSSIF) were added into the vials. All the vials were placed on the thermo-mixer and kept at 37° C. (700 r/min). After shaking at 37° C. for 17 hrs, clear solutions obtained by centrifugation were analyzed by HPLC after being diluted by ACN/water (1v/1v) for 10-50 times. And pH value of all systems were measured.

[2] = Polymorph screening study of mono-hydrochloride (slurry, heating-cooling, slow evaporation, anti-solvent); settings: slow evaporation and anti-solvent methods, starting from Pattern I
Method: About 50 mg of (1S,2S)-2-fluoro-N-(6-(4-methylpyridin-3-yl)benzo[d]thiazol-2-yl)cyclopropane-1-carboxamide mono-hydrochloride was suspended into 1.0 mL selected pure or binary solvents in 2.0 mL glass vials. The suspensions were placed on the thermo-mixer with the speed of 700 r/m in at 25° C. and 50° C. After 4 days, slurries and suspensions were centrifuged (8,000 r/m in, 5 mins) and residual solids were dried in the vacuum oven at 35° C. for 4 hrs.
About 50 mg of (1S,2S)-2-fluoro-N-(6-(4-methylpyridin-3-yl)benzo[d]thiazol-2-yl)cyclopropane-1-carboxamide mono-hydrochloride was suspended into 1.0 mL selected pure or binary solvents in 2.0 mL glass vials at 50° C. stirring with the speed of 500 r/min. Then the suspensions were filtered through 0.45 μm filters into clean 2.0 mL glass vials and placed on the hot-plate stirring with 500 r/m in at 50° C. After stirring at 50° C. for 1.5 hrs, the system was cooled to 25° C. After stirring at 25° C. for 16 hrs, some solids came out from MeOH, EtOH/H2O (5/1, v/v) and acetone/H2O (5/1, v/v) systems, while very few solids came out from EtOH system. Then MeOH, EtOH/H2O (5/1, v/v) and acetone/H2O (5/1, v/v) systems were centrifuged at 10000 r/min for 5 mins and residual solids were dried in the vacuum oven at 35° C. for 3 hrs. Obtained dry solids were then characterized by XRPD. […]

[3] = Dry grinding and wet granulation, physical stability in the milling process
Method: Dry grinding and wet granulation were carried out to test physical stability of (1S,2S)-2-fluoro-N-(6-(4-methylpyridin-3-yl)benzo[d]thiazol-2-yl)cyclopropane-1-carboxamide mono-hydrochloride in the milling process.
(§1) For dry grinding experiment, about 50 mg of (1S,2S)-2-fluoro-N-(6-(4-methylpyridin-3-yl)benzo[d]thiazol-2-yl)cyclopropane-1-carboxamide mono-hydrochloride was added into mortar and grinded by pestle for about 5 mins. Residual solids were then characterized by XRPD.
as §1, with “wet granulation” for “dry grinding”, “and then several drops of solvent EtOH were added until the solids were fully wetted. Wet solids were” for “and”, “mins manually and residual” for “mins. Residual”

[4] = Solubility of mono-hydrochloride in solvents; settings: in MeOH, DMF, DMSO and water

A solubility at 17 h ([1]; pH 1.88, simulated gastric fluid) greater than 13900 µg/mL, a solubility at 17 h ([1]; pH 5.07, fessif) of 130 µg/mL and a solubility at 17 h ([1]; pH 6.62, fassif) of 7840 µg/mL were found for `Cc1ccncc1-c1ccc2nc(NC(=O)[C@@H]3C[C@@H]3F)sc2c1.Cl` [Mono-hydrochloride, (1S,2S)-2-fluoro-N-(6-(4-methylpyridin-3-yl)benzo[d]thiazol-2-yl)cyclopropane-1-carboxamide mono-hydrochloride] in this work. The pH ([1]; FaSSIF (pH = 6.62)) was 2.01, the pH ([1]; FeSSIF (pH = 5.07)) was 3.83 and the pH ([1]; SGF (pH = 1.88)) was 1.89. For the same compound, the “XRPD pattern in polymorph screening” value [2] was “No new XRPD pattern was found”, the “crystallinity of residual solids (XRPD)” value ([3]; after dry grinding) was “decreased” and the “crystalline form (XRPD)” value ([3]; after dry grinding or wet granulation process) was “not changed”. For the same compound, the solubility [4] was “relatively high solubility”.
